Source: the supplement of paper PMC10307832

Experiments:
[1] = compound: CC1CC(=O)N(C2=CN=C(N=C2N1C3CCCC3)NC4=C(C=C(C=C4)C(=O)NC5CCN(CC5)C)OC)C [NPK76-II-72-1] + NC(=O)Nc1cc(-c2cccc(F)c2)sc1C(=O)N[C@H]1CCCNC1 [AZD7762] (partner 0.2 µM); test: relative viability (nuclei count vs DMSO), 5 days (fraction); higher = more cells survive
How it was run: (§1)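 Dosing by pin tool came one day after lung cancer cell lines were seeded in 1536-well plates, using either one drug or a fixed anchor-drug dose plus five library-drug doses (not always all listed) in √10 steps. After 5 days, nuclei were counted on 4× images. Relative viability is treated-well nuclei count divided by vehicle-well nuclei count, and values are medians of duplicate plates.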

[2] = compound: CC1CC(=O)N(C2=CN=C(N=C2N1C3CCCC3)NC4=C(C=C(C=C4)C(=O)NC5CCN(CC5)C)OC)C [NPK76-II-72-1] + CC(=O)Nc1cccc(-n2c(=O)n(C3CC3)c(=O)c3c(Nc4ccc(I)cc4F)n(C)c(=O)c(C)c32)c1 [Trametinib] (partner 0.02 µM); test: as above
How it was run: as §1

Cell Line	relative viability ([1]; first compound 0.01 µM)	relative viability ([1]; first compound 0.03162 µM)	relative viability ([1]; first compound 0.1 µM)	relative viability ([1]; first compound 0.3162 µM)	relative viability ([1]; first compound 1 µM)	relative viability ([2]; first compound 0.01 µM)	relative viability ([2]; first compound 0.03162 µM)	relative viability ([2]; first compound 0.1 µM)	relative viability ([2]; first compound 0.3162 µM)	relative viability ([2]; first compound 1 µM)
201T	0.579	0.759	0.62	0.618	0.619	0.716	0.701	0.709	0.689	0.716
A-427	0.682	0.673	0.945	0.796	0.814	0.732	0.743	0.812	0.691	0.812
ABC-1	0.73	0.726	0.719	0.536	0.72	–	–	–	–	–
BEN	0.77	0.516	0.791	0.572	0.786	1.15	0.945	1.13	0.854	1.08
CAL-12T	0.65	0.718	0.506	0.645	0.724	0.325	0.346	0.362	0.306	0.37
COR-L23	–	–	–	–	–	0.588	0.679	0.671	0.497	0.65
COR-L 105	–	–	–	–	–	0.43	0.456	0.491	0.424	0.435
ChaGo-K-1	0.829	0.873	0.833	0.809	0.839	0.876	0.98	0.868	0.897	0.875
EKVX	0.672	0.629	0.718	–	0.83	0.359	0.32	0.367	–	0.384
EMC-BAC-2	1.02	1.07	1.02	1.09	1.17	0.836	0.955	0.845	0.81	0.952
EPLC-272H	0.183	0.207	0.22	0.254	0.208	0.257	0.246	0.252	0.296	0.284
H3255	0.841	0.815	0.959	0.655	0.988	0.675	0.603	0.637	–	0.587
HARA	0.292	0.464	0.297	–	0.451	0.83	0.864	0.619	–	0.856
HCC-15	1.18	1.32	0.549	1.16	1.23	0.35	0.329	0.342	0.357	0.393
HCC-44	1.02	1.09	0.966	0.999	1.07	1.06	1.27	0.95	0.992	0.988
HCC-78	0.634	0.574	0.593	0.521	0.755	0.711	0.704	0.575	0.828	0.742
HCC-366	0.233	0.388	0.375	0.246	0.468	0.336	0.403	0.372	0.308	0.424
HCC-827	0.2	0.203	0.243	0.129	0.259	0.557	0.491	0.556	0.633	0.565

Cell Line	relative viability ([1]; first compound 0.01 µM)	relative viability ([1]; first compound 0.03162 µM)	relative viability ([1]; first compound 0.1 µM)	relative viability ([1]; first compound 0.3162 µM)	relative viability ([1]; first compound 1 µM)	relative viability ([2]; first compound 0.01 µM)	relative viability ([2]; first compound 0.03162 µM)	relative viability ([2]; first compound 0.1 µM)	relative viability ([2]; first compound 0.3162 µM)	relative viability ([2]; first compound 1 µM)
HOP-62	0.405	0.507	0.556	0.444	0.514	0.384	0.415	0.337	0.428	0.37
LC-2-ad	0.833	0.855	0.852	0.879	0.895	0.826	0.934	0.983	0.92	0.945
LCLC-97TM1	0.298	0.404	0.27	–	0.298	0.203	0.208	0.181	0.215	0.209
LCLC-103H	–	0.851	0.789	0.852	0.745	–	0.673	0.556	0.709	0.693
LK-2	0.367	0.42	0.439	0.323	0.379	0.767	0.65	0.584	0.609	0.69
LOU-NH91	0.728	0.744	0.723	0.675	0.798	0.76	0.751	0.777	0.739	0.829
LU99A	0.425	0.298	0.503	0.248	0.402	0.591	0.542	0.596	0.536	0.602
LXF-289	1.07	1.12	0.992	1.1	1.08	0.71	0.691	0.644	0.703	0.68
NCI-H23	0.249	0.246	0.292	0.286	0.319	0.361	0.424	0.271	0.342	0.38
NCI-H322M	0.532	0.504	0.52	0.655	0.52	0.531	0.492	0.472	0.483	0.557
NCI-H358	0.521	0.525	0.611	–	0.683	0.14	0.145	0.204	–	0.151
NCI-H441	1.12	1.07	1.08	1.04	1.07	0.396	0.507	0.429	0.497	0.54
NCI-H460	0.631	0.652	0.666	0.555	0.75	0.271	0.14	0.141	0.123	0.174
NCI-H520	–	–	–	–	–	0.646	0.687	0.676	0.688	0.769
NCI-H522	0.945	0.826	0.786	–	0.809	0.811	0.619	0.747	–	0.79
NCI-H596	1.13	1.12	1.27	1.15	1.1	0.764	0.787	0.776	0.82	0.803
NCI-H647	0.4	0.476	0.578	0.434	0.379	0.443	0.436	0.418	0.527	0.54
